Results reported in the supplement of paper PMC6045584.
± gives the standard deviation of the averaged measurements.

Experiments:
[1] = compound: COc1cc2c(Oc3ccc(NC(=O)C4(C(=O)Nc5ccc(F)cc5)CC4)cc3F)ccnc2cc1OCCCN1CCOCC1 [FORETINIB]; assay: surviving fraction relative to DMSO-only wells; higher = less growth inhibition; conditions: exposure time: 5 days
Outline: (§1)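 Log-phase tumour cells were seeded at 250–500 per well in 384-well plates and, from 24 hours after seeding, exposed continuously for five days to inhibitors at 0.5, 1, 5, 10, 50, 100, 500 and 1000 nM. Surviving fraction is CellTiter-Glo luminescence normalised to the median of DMSO-only wells. Luminescence was measured after 10 minutes at room temperature, and only lines screened three times with replicate Pearson r >0.7 and median Z' >0.3 were kept.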

[2] = compound: C[C@@H](Oc1cc(-c2cnn(C3CCNCC3)c2)cnc1N)c1c(Cl)ccc(F)c1Cl [CRIZOTINIB]; assay: as above; conditions: exposure time: 5 days
Outline: as §1

Row | Test System | surviving fraction ([1]; 0.5 nM) | surviving fraction ([1]; 1 nM) | surviving fraction ([1]; 5 nM) | surviving fraction ([1]; 10 nM) | surviving fraction ([1]; 50 nM) | surviving fraction ([1]; 100 nM) | surviving fraction ([1]; 500 nM) | surviving fraction ([1]; 1000 nM) | surviving fraction ([2]; 0.5 nM) | surviving fraction ([2]; 1 nM) | surviving fraction ([2]; 5 nM) | surviving fraction ([2]; 10 nM) | surviving fraction ([2]; 50 nM) | surviving fraction ([2]; 100 nM) | surviving fraction ([2]; 500 nM) | surviving fraction ([2]; 1000 nM)
1 | CAL72 BONE | 1.1 ± 0.12 | 1.08 ± 0.12 | 1.13 ± 0.016 | 1.11 ± 0.12 | 1.17 ± 0.069 | 1.13 ± 0.041 | 0.655 ± 0.13 | 0.326 ± 0.088 | 1.09 ± 0.13 | 1.09 ± 0.13 | 1.09 ± 0.12 | 1.11 ± 0.17 | 1.08 ± 0.15 | 1.1 ± 0.11 | 0.859 ± 0.15 | 0.814 ± 0.17
2 | CAL120 BREAST | 0.95 ± 0.035 | 1.01 ± 0.033 | 0.997 ± 0.026 | 0.993 ± 0.042 | 0.997 ± 0.069 | 0.97 ± 0.014 | 0.683 ± 0.03 | 0.562 ± 0.016 | 0.969 ± 0.069 | 1 ± 0.076 | 0.982 ± 0.038 | – | 1 ± 0.04 | 1.01 ± 0.049 | 0.933 ± 0.012 | 0.685 ± 0.026
3 | CASKI CERVIX | 0.902 ± 0.072 | 0.929 ± 0.013 | 0.962 ± 0.019 | 0.943 ± 0.018 | 0.988 ± 0.062 | 0.976 ± 0.06 | 0.322 ± 0.026 | 0.188 ± 0.0057 | 0.955 ± 0.029 | 1 ± 0.067 | – | 1.04 ± 0.06 | 0.999 ± 0.053 | 0.984 ± 0.052 | 0.382 ± 0.063 | 0.383 ± 0.029
4 | CHLA90 AUTONOMIC GANGLIA | 0.983 ± 0.048 | 1.1 ± 0.24 | 0.977 ± 0.069 | 0.909 ± 0.045 | 0.962 ± 0.13 | 0.941 ± 0.12 | 0.62 ± 0.11 | 0.493 ± 0.12 | – | 1 ± 0.025 | 0.951 ± 0.016 | 0.929 ± 0.056 | – | – | 0.755 ± 0.14 | 0.476 ± 0.096
5 | CME SYNOVIAL | 1.39 ± 0.037 | 1.39 ± 0.12 | 1.41 ± 0.074 | 1.28 ± 0.14 | 1.27 ± 0.08 | 1.18 ± 0.12 | 0.887 ± 0.1 | 0.285 ± 0.048 | 1.23 ± 0.11 | 1.23 ± 0.1 | 1.36 ± 0.16 | – | 1.21 ± 0.1 | 1.18 ± 0.022 | 0.65 ± 0.035 | 0.286 ± 0.033
6 | COLO320DM LARGE INTESTINE | 1.09 ± 0.087 | 1.13 ± 0.066 | 1.07 ± 0.026 | 1.12 ± 0.076 | 1.05 ± 0.045 | 1.08 ± 0.11 | 0.517 ± 0.023 | 0.429 ± 0.05 | 1.13 ± 0.11 | 1.12 ± 0.055 | 1.11 ± 0.056 | 1.04 ± 0.092 | 1.21 ± 0.051 | 1.12 ± 0.092 | 0.622 ± 0.015 | 0.398 ± 0.043
7 | DU4475 BREAST | 0.942 ± 0.16 | 1.03 ± 0.019 | 0.931 ± 0.066 | 0.971 ± 0.19 | 0.979 ± 0.11 | 0.821 ± 0.13 | 0.715 ± 0.031 | 0.644 ± 0.043 | 0.991 ± 0.16 | 1 ± 0.12 | – | 0.947 ± 0.17 | – | – | 0.611 ± 0.05 | 0.389 ± 0.057
8 | H23 LUNG | 1.04 ± 0.058 | 1.07 ± 0.073 | 1.06 ± 0.073 | 0.982 ± 0.035 | 0.976 ± 0.079 | 0.986 ± 0.08 | 0.889 ± 0.024 | 0.388 ± 0.015 | 1.04 ± 0.058 | 1.02 ± 0.025 | 1.07 ± 0.04 | 1.08 ± 0.02 | 1.06 ± 0.062 | 1.11 ± 0.059 | 1.11 ± 0.072 | –
9 | HCC78 LUNG | 0.779 ± 0.1 | 0.92 ± 0.14 | 0.89 ± 0.12 | 0.752 ± 0.091 | 0.257 ± 0.06 | 0.259 ± 0.039 | 0.179 ± 0.025 | 0.0403 ± 0.0068 | 0.99 ± 0.11 | 1 ± 0.074 | – | – | 0.521 ± 0.021 | 0.522 ± 0.082 | 0.216 ± 0.062 | 0.072 ± 0.029
